Experimental data reported in patent US8680047B2, “Fas peptide mimetics and uses thereof” (The Trustees of the University of Pennsylvania, priority 2002, dated 2014).
Positions of bridges follow the written chain, without caps; N, C: chain ends. Residues, ends and D or L forms follow the SMILES beside them. No end group written: not given here.

Assays:
[1] = target: T1, FasL (Homo sapiens, UniProt P48023); experiment: Surface plasmon resonance (BIAcore) analysis, immobilized FasL-Flag; assay type: binding; details: FasL-Flag immobilized on sensor chip, 25° C.
T1 construct: Flag-tagged soluble human Fas ligand (FasL-Flag); purchased Kamiya Biomedical (Seattle, Wash.)
T1 sequence (P48023 130-281 limits assumed): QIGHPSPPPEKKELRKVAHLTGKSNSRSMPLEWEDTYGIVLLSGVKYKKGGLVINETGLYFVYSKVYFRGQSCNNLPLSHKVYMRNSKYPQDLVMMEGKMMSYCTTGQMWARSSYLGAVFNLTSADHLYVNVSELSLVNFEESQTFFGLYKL
Protocol: The kinetics of binding of Kp7-6, which mediated the best inhibitory activity to FasL, was performed using surface plasmon resonance (BIAcore™) analysis. […] The koff value is considered as an important indicator in the development of therapeutics with biological activity (Benveniste, M. et al. Br J Pharmacol 104, 207-221 (1991); Yiallouros, I. et al. Biochem J 331, 375-379 (1998)), and generally correlates with potent biological effects. (Moosmayer, D. et al. J Interferon Cytokine Res 16, 471-477 (1996)). […] (Berezov, A. et al. J Med Chem 44, 2565-2574 (2001)).
To assess the specificity of Kp7-6 binding interaction, Fas, FasL and TNFα were immobilized on a sensor chip. Kp7-6 bound to FasL but not to TNFα, which indicates Kp7-6 bound to FasL specifically (FIG. 3B). […] (Naismith, J. H. et al. Structure 4, 1251-1262 (1996)).
Biosensor analysis. All experiments were carried out on a BIAcore 3000 instrument (Biacore AG, Uppsala, Sweden) at 25° C. using PBS, pH 7.4, containing 0.005% surfactant P20 (Biacore AG) as the running buffer. FasL-Flag, Fas-Fc or TNFRI-Fc was immobilized on research-grade CM5 sensor chips (Biacore AG) using standard N-ethyl-N-dimethylaminopropyl carbodiimid/N-hydroxysuccinimide coupling. […] Data were analyzed with the BIA evaluation 3.0 software (Biacore AG). […]

[2] = test system: FasL-sensitive Jurkat cells; experiment: FasL-induced cytotoxicity assay in Jurkat cells ([3H]-thymidine incorporation); assay type: cell-based, human; details: for inhibition of Fas-mediated cytotoxicity: Jurkat cells stimulated with soluble FasL-Flag, various concentrations of mimetic
Protocol: To evaluate the effect of mimetics on Fas-mediated cytotoxicity, FasL-sensitive Jurkat cells were stimulated with soluble FasL-Flag fusion protein in the presence or absence of various concentrations of mimetics. The inhibitory effects of mimetics on Fas-mediated cytotoxicity were consistent with the results of the FasL-binding inhibition (FIG. 4). […] A concentration of 1 mM Kp7-6 protected more than 90% cells from Fas-mediated cytotoxicity (FIG. 4). […] Large dose of Kp7-6 was used in this experiment for better signal-to-noise ratio. To determine if mimetics derived from other binding sites would potentially be able to interact synergistically to block the Kp7 surface, Kp7 was used in combination with mimetics.
Cytotoxicity assay. Twenty microliters of Jurkat cells at 1×10^5 cells/ml were plated in 96-well U-bottom plates. FasL-Flag (120 ng/ml in culture medium) was preincubated with equal volume of peptide sample in PBS for 1 h at 37° C., and 20 μl of mixture was added to each well. After an incubation period of 24 h, each culture was pulsed with 1 μCi of [^3H]-thymidine for 24 h before harvesting on glass fiber filters. Incorporation of the ^3H-thymidine obtained with culture medium alone and with 30 ng/ml of FasL was used as reference for 100% survival and 0% survival, respectively. Survival (%) by several doses of peptides was plotted. Incorporation of the radioactive label was measured by liquid scintillation counting (Wallac, Finland) and expressed as the arithmetic mean counts per minute (cpm) of triplicate cultures.

[3] = test system: Con A-induced hepatitis model; experiment: Con A-induced hepatitis model, serum transaminase activity; assay type: in vivo, C57BL/6 mice; details: IP pretreatment 30 min before Con A iv
Protocol: The biological activity of mimetic Kp7-6 was measured in vivo. FasL induced apoptosis is one of the primary and dominant pathways by which liver cells undergo apoptosis under various conditions such as viral infection, drug toxicity and other lesions. (Kakinuma, C. et al. Toxicol Pathol 27, 412-420 (1999); Famularo, G., et al. Med Hypotheses 53, 50-62 (1999); Gantner et al. supra). […] (Zhang, H. et al. Nat Biotechnol 18, 862-867 (2000); Song, E. et al. Nat Med (2003)). The antagonistic effect of Kp7-6 in vivo was tested using the Con A-induced hepatitis model. C57BL/6 mice were pretreated intraperitoneally (IP) with anti-FasL monoclonal antibody, Fas mimetic peptides or saline. After 30 min, animals were challenged intravenously with Con A or saline. The induction of liver damage and inflammatory hepatitis was evaluated by measuring the serum activities of alanine aminotransferase (ALT) and aspartate aminotransferase (AST) 12 h after Con A treatment.
Administration of Con A and Measurement of Serum Transaminase Activity. […]
Blood samples were collected from mice at 12 h after Con A injection, and the serum was taken by centrifugation. Serum activities of alanine aminotransferase (ALT) and aspartate aminotransferase (AST) were measured by Lippi-Guidi's method (Iatrozyme TA-LQ: Dia-Iatron Inc., Tokyo, Japan). […]

N[C@@H](Cc1ccc(O)cc1)C(=O)N[C@H]1CSSC[C@@H](C(=O)N[C@@H](Cc2ccc(O)cc2)C(=O)O)NC(=O)[C@H](Cc2ccccc2)NC(=O)[C@H](Cc2c[nH]cn2)NC(=O)[C@H](CCC(=O)O)NC(=O)[C@H](CC(=O)O)NC1=O [Kp7-6, YCDEHFCY] (H-YCDEHFCY-OH; disulfide 2-7; N-terminus and C-terminus assumed)
koff ([1]; read-out: koff rate constant): 0.000765 s⁻¹ | kon ([1]; read-out: kon rate constant): 68.5 M⁻¹ s⁻¹ | cells protected from Fas-mediated cytotoxicity ([2]; 1 mM mimetic, Jurkat cells, FasL-Flag): more than 90% | inhibition of Fas-mediated cytotoxicity [2]: dose-dependent inhibitory activity

YCDEHGLCY (disulfide 2-8 (inferred)) [Kp7-7, exocyclic mimetic derived from Fas Kp7 loop]
block of Con A-induced hepatic injury [3]: protection of mice against Con A induced liver injury

YCDEQFCY (disulfide 2-7 (inferred)) [Kp7-10, exocyclic mimetic derived from Fas Kp7 loop]
synergy in combination with members of the Kp4 mimetics ([2]; Fas-mediated cytotoxicity, data not shown): Neither Kp7-6 nor Kp7-10 used in combination with members of the Kp4 mimetics showed any significant synergy | inhibition of Fas-mediated cytotoxicity [2]: dose-dependent inhibition

YCNSTVCY (disulfide 2-7 (inferred)) [Kp1-1, exocyclic mimetic derived from Fas Kp1 loop]
block of Con A-induced hepatic injury [3]: did not block the hepatic injury
